Data from PubChem BioAssay (NCI).
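Protocol summary: plate cells (96-well), add compound at 5 concentrations, incubate 48 h, interpolate endpoints linearly. GI50 = concentration required for 50% inhibition of growth. Definition used: TGI = concentration required for complete inhibition of growth.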

Assays:
Assay in all cases: growth of human tumour cells (NCI), 48 h
SF-268 CNS = test system: SF-268 CNS
COLO 205 colon = test system: COLO 205 colon
NCI-H522 lung = test system: NCI-H522 lung
MALME-3M melanoma = test system: MALME-3M melanoma
786-0 renal = test system: 786-0 renal
SF-539 CNS = test system: SF-539 CNS
NCI/ADR-RES ovarian = test system: NCI/ADR-RES ovarian
UACC-257 melanoma = test system: UACC-257 melanoma
ACHN renal = test system: ACHN renal
SK-MEL-5 melanoma = test system: SK-MEL-5 melanoma
SN12C renal = test system: SN12C renal
LOX IMVI melanoma = test system: LOX IMVI melanoma
SK-MEL-28 melanoma = test system: SK-MEL-28 melanoma
NCI-H460 lung = test system: NCI-H460 lung
DU-145 prostate = test system: DU-145 prostate
MDA-MB-435 = test system: MDA-MB-435
MCF7 breast = test system: MCF7 breast
OVCAR-5 ovarian = test system: OVCAR-5 ovarian
SW-620 colon = test system: SW-620 colon
TK-10 renal = test system: TK-10 renal
HT29 colon = test system: HT29 colon
HCT-116 colon = test system: HCT-116 colon
A549 NSCLC = test system: A549 NSCLC
MOLT-4 leukemia = test system: MOLT-4 leukemia
SK-MEL-2 melanoma = test system: SK-MEL-2 melanoma
NCI-H226 lung = test system: NCI-H226 lung
PC-3 prostate = test system: PC-3 prostate
UACC-62 melanoma = test system: UACC-62 melanoma
OVCAR-8 ovarian = test system: OVCAR-8 ovarian
K-562 leukemia = test system: K-562 leukemia
M14 melanoma = test system: M14 melanoma
OVCAR-4 ovarian = test system: OVCAR-4 ovarian
A498 renal = test system: A498 renal
KM12 colon = test system: KM12 colon
SK-OV-3 ovarian = test system: SK-OV-3 ovarian
CCRF-CEM leukemia = test system: CCRF-CEM leukemia
HS 578T breast = test system: HS 578T breast
SR leukemia = test system: SR leukemia
OVCAR-3 ovarian = test system: OVCAR-3 ovarian
IGROV1 ovarian = test system: IGROV1 ovarian
HOP-92 NSCLC = test system: HOP-92 NSCLC
MDA-MB-231 breast = test system: MDA-MB-231 breast
SNB-19 CNS = test system: SNB-19 CNS
BT-549 breast = test system: BT-549 breast
T-47D breast = test system: T-47D breast
U251 CNS = test system: U251 CNS
RPMI-8226 leukemia = test system: RPMI-8226 leukemia
NCI-H23 lung = test system: NCI-H23 lung
HCC-2998 colon = test system: HCC-2998 colon
HL-60(TB) leukemia = test system: HL-60(TB) leukemia
RXF 393 renal = test system: RXF 393 renal
HOP-62 NSCLC = test system: HOP-62 NSCLC
CAKI-1 renal = test system: CAKI-1 renal
UO-31 renal = test system: UO-31 renal
HCT-15 colon = test system: HCT-15 colon

SMILES: COc1ccc(/C=C/C(=O)c2ccc3cc(OC)c(OC)cc3c2)cc1OC
- GI50 (SF-268 CNS): 4.45 µM
- TGI (SF-268 CNS): 22.6 µM
- GI50 (COLO 205 colon): 4.1 µM
- TGI (COLO 205 colon): 13.2 µM
- GI50 (NCI-H522 lung): 2480 nM
- TGI (NCI-H522 lung): 7.99 µM
- GI50 (MALME-3M melanoma): 13.6 µM
- TGI (MALME-3M melanoma): 30.2 µM
- GI50 (786-0 renal): 4.19 µM
- TGI (786-0 renal): 27.9 µM
- GI50 (SF-539 CNS): 2940 nM
- TGI (SF-539 CNS): 10.4 µM
- GI50 (NCI/ADR-RES ovarian): 2710 nM
- TGI (NCI/ADR-RES ovarian): 8.85 µM
- GI50 (UACC-257 melanoma): 6.14 µM
- TGI (UACC-257 melanoma): 22.6 µM
- GI50 (ACHN renal): 3.81 µM
- TGI (ACHN renal): > 100 µM
- GI50 (SK-MEL-5 melanoma): 2300 nM
- TGI (SK-MEL-5 melanoma): 6.61 µM
- GI50 (SN12C renal): 3.41 µM
- TGI (SN12C renal): 31.2 µM
- GI50 (LOX IMVI melanoma): 2950 nM
- TGI (LOX IMVI melanoma): 11.2 µM
- GI50 (SK-MEL-28 melanoma): 11.2 µM
- TGI (SK-MEL-28 melanoma): 32.3 µM
- GI50 (NCI-H460 lung): 3.35 µM
- TGI (NCI-H460 lung): 12.5 µM
- GI50 (DU-145 prostate): 4.01 µM
- TGI (DU-145 prostate): 15.7 µM
- GI50 (MDA-MB-435): 3.06 µM
- TGI (MDA-MB-435): 18.1 µM
- GI50 (MCF7 breast): 2690 nM
- TGI (MCF7 breast): 12.1 µM
- GI50 (OVCAR-5 ovarian): 4.81 µM
- TGI (OVCAR-5 ovarian): > 100 µM
- GI50 (SW-620 colon): 3.32 µM
- TGI (SW-620 colon): 14.2 µM
- GI50 (TK-10 renal): 3.17 µM
- TGI (TK-10 renal): 9.97 µM
- GI50 (HT29 colon): 2970 nM
- TGI (HT29 colon): 9.47 µM
- GI50 (HCT-116 colon): 2640 nM
- TGI (HCT-116 colon): > 100 µM
- GI50 (A549 NSCLC): 2590 nM
- TGI (A549 NSCLC): 10.6 µM
- GI50 (MOLT-4 leukemia): 3.07 µM
- TGI (MOLT-4 leukemia): 9.53 µM
- GI50 (SK-MEL-2 melanoma): 11.5 µM
- TGI (SK-MEL-2 melanoma): 31.6 µM
- GI50 (NCI-H226 lung): 2970 nM
- TGI (NCI-H226 lung): 13.5 µM
- GI50 (PC-3 prostate): 3.08 µM
- TGI (PC-3 prostate): 13.3 µM
- GI50 (UACC-62 melanoma): 3.71 µM
- TGI (UACC-62 melanoma): 16.9 µM
- GI50 (OVCAR-8 ovarian): 2560 nM
- TGI (OVCAR-8 ovarian): 7.89 µM
- GI50 (K-562 leukemia): 3.02 µM
- TGI (K-562 leukemia): > 100 µM
- GI50 (M14 melanoma): 5.47 µM
- TGI (M14 melanoma): 21 µM
- GI50 (OVCAR-4 ovarian): 3.5 µM
- TGI (OVCAR-4 ovarian): 36.7 µM
- GI50 (A498 renal): 2660 nM
- TGI (A498 renal): 23.1 µM
- GI50 (KM12 colon): 2690 nM
- TGI (KM12 colon): 7.95 µM
- GI50 (SK-OV-3 ovarian): 4.41 µM
- TGI (SK-OV-3 ovarian): 83.5 µM
- GI50 (CCRF-CEM leukemia): 3.03 µM
- TGI (CCRF-CEM leukemia): 31.6 µM
- GI50 (HS 578T breast): 3.77 µM
- TGI (HS 578T breast): 41.2 µM
- GI50 (SR leukemia): 1690 nM
- TGI (SR leukemia): > 100 µM
- GI50 (OVCAR-3 ovarian): 3.2 µM
- TGI (OVCAR-3 ovarian): 13.5 µM
- GI50 (IGROV1 ovarian): 4.72 µM
- TGI (IGROV1 ovarian): 63.4 µM
- GI50 (HOP-92 NSCLC): 1650 nM
- TGI (HOP-92 NSCLC): 6.26 µM
- GI50 (MDA-MB-231 breast): 6.19 µM
- TGI (MDA-MB-231 breast): > 100 µM
- GI50 (SNB-19 CNS): 5.29 µM
- TGI (SNB-19 CNS): 29.8 µM
- GI50 (BT-549 breast): 2550 nM
- TGI (BT-549 breast): 8.39 µM
- GI50 (T-47D breast): 2930 nM
- TGI (T-47D breast): 33.5 µM
- GI50 (U251 CNS): 3.33 µM
- TGI (U251 CNS): 15.2 µM
- GI50 (RPMI-8226 leukemia): 1900 nM
- TGI (RPMI-8226 leukemia): 5.07 µM
- GI50 (NCI-H23 lung): 6.9 µM
- TGI (NCI-H23 lung): 32 µM
- GI50 (HCC-2998 colon): 3.92 µM
- TGI (HCC-2998 colon): 13.9 µM
- GI50 (HL-60(TB) leukemia): 3.46 µM
- TGI (HL-60(TB) leukemia): 10.1 µM
- GI50 (RXF 393 renal): 2820 nM
- TGI (RXF 393 renal): 8.15 µM
- GI50 (HOP-62 NSCLC): 3.92 µM
- TGI (HOP-62 NSCLC): 22.1 µM
- GI50 (CAKI-1 renal): 4.29 µM
- TGI (CAKI-1 renal): 65.4 µM
- GI50 (UO-31 renal): 2850 nM
- TGI (UO-31 renal): 12.7 µM
- GI50 (HCT-15 colon): 2690 nM
- TGI (HCT-15 colon): 40.8 µM
